Literature values, collected in patent US10463641B2, “Method for using small molecule compounds to induce human tumor cells to be directly reprogrammed into non-oncogenic cells” (Transcend Cytotherapy Co., Ltd, priority 2015, dated 2019).

How the values were obtained:
[1] = system: TGF-β type II receptor and activin type II receptor
BMP type II receptor = molecular target: T1, BMP type II receptor (Homo sapiens, UniProt Q13873)
T1 sequence (Q13873 27-1038): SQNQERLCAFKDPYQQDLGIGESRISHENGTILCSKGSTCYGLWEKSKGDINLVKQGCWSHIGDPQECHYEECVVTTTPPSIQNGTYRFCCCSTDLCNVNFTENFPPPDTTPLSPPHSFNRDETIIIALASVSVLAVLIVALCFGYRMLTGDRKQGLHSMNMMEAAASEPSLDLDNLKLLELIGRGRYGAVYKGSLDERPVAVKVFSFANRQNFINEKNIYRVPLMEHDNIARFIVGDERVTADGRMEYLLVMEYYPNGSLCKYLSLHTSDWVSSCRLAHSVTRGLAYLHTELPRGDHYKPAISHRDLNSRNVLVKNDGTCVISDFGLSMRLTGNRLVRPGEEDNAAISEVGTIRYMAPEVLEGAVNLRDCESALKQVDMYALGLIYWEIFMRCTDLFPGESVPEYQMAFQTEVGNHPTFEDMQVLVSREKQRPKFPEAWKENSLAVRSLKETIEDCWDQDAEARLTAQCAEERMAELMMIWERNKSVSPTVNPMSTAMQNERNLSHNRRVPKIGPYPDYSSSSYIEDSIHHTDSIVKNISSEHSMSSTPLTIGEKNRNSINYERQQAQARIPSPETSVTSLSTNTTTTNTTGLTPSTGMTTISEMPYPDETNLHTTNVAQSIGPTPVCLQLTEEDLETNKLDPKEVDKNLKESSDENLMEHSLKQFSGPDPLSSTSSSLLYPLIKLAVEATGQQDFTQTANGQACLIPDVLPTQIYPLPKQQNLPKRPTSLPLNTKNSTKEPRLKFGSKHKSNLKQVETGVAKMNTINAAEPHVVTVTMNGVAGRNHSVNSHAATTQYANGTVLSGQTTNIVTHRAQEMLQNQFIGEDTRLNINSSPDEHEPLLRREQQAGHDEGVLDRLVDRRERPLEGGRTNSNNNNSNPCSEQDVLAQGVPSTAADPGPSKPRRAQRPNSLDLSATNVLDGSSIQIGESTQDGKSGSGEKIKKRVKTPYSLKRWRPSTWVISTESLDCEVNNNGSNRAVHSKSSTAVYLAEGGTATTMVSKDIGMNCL

ALK4 = molecular target: T2, ALK4 (Homo sapiens, UniProt P36896); details: ALK4 vs ALK5
T2 sequence (P36896 24-505): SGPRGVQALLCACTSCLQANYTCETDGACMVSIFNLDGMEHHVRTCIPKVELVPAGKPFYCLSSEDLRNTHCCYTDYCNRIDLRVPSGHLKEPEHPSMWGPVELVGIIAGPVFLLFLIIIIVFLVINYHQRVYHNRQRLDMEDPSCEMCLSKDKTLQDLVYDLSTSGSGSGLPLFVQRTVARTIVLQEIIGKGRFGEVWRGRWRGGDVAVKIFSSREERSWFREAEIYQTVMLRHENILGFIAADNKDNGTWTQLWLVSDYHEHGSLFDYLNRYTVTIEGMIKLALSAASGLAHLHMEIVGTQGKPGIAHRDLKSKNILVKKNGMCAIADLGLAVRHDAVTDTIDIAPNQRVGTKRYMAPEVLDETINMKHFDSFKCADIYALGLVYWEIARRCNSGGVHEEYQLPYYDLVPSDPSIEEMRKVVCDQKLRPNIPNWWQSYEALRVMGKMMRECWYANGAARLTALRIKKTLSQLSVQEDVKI

ALK7 = molecular target: T3, ALK7 (Homo sapiens, UniProt Q8NER5); details: qualitative
T3 sequence (Q8NER5 21-493): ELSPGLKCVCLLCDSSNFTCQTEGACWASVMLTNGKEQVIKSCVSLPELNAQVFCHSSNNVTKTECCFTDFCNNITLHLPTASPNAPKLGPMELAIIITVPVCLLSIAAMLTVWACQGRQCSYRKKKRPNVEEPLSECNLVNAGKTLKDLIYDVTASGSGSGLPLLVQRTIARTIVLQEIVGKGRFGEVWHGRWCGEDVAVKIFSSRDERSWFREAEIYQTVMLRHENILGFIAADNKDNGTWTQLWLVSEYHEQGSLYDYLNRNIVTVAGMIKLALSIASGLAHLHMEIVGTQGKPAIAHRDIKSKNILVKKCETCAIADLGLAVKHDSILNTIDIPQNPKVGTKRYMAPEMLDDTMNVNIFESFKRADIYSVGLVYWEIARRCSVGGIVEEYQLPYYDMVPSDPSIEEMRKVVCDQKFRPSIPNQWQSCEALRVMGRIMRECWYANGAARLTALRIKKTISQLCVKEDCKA

GSK-3β = GSK-3β (Homo sapiens, UniProt P49841); details: vs CDC2, ERK2 and other kinases
ALK1 = ALK1 (Homo sapiens, UniProt P37023)
ALK6 = ALK6 (Homo sapiens, UniProt O00238)
BMP type I receptor ALK3 = details: C2C12 cells; read-out: IC50, transcription activity of BMP type I receptor ALK3
ALK2 = ALK2 (Homo sapiens, UniProt Q04771); details: DMH1
[2] = system: AMPK, ALK5, KDR (VEGFR-2) and PDGFR
ALK5 = ALK5 (Homo sapiens, UniProt P36897); details: vs TGF-βRII
Sequence of ALK5 (P36897 34-503, species assumed): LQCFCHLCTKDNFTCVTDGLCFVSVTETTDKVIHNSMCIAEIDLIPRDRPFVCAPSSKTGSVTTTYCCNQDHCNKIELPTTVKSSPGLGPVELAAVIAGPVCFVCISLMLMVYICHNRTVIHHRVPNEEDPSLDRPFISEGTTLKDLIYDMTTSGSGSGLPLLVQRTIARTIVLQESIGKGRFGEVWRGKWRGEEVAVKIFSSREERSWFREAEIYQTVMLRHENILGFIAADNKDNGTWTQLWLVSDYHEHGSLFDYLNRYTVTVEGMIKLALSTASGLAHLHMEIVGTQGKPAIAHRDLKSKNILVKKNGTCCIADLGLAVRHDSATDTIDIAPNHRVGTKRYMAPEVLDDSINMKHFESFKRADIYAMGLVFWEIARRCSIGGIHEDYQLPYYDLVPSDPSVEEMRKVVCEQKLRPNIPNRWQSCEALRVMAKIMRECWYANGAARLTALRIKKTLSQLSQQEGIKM

Sequence of ALK1 (P37023 22-503, species assumed): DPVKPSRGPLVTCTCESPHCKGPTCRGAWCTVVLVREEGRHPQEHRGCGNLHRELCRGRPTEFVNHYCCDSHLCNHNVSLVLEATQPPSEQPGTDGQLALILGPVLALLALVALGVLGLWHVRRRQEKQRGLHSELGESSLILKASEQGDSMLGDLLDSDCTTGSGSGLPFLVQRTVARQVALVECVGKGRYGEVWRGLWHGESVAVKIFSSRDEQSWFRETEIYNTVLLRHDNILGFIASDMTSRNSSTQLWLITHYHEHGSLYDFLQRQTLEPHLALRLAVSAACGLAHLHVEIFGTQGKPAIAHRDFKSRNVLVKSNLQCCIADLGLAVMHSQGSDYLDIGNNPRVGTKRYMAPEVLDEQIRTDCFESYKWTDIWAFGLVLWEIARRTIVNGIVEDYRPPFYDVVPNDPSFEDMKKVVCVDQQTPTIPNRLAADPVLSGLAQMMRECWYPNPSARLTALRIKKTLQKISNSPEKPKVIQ
Sequence of ALK2 (Q04771 21-509): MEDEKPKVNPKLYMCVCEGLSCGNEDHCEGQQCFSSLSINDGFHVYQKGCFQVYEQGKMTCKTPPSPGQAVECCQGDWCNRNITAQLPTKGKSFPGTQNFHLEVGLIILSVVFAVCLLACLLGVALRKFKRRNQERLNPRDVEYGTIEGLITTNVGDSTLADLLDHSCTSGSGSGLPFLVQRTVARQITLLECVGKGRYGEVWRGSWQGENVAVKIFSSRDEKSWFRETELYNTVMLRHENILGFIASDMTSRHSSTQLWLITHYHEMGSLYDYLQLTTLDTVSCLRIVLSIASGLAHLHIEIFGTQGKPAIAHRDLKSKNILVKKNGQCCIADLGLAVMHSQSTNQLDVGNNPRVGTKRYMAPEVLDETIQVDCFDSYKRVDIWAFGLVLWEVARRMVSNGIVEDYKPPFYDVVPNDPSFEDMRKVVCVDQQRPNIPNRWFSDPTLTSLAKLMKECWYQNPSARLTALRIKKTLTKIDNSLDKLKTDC
Sequence of ALK6 (O00238 14-502): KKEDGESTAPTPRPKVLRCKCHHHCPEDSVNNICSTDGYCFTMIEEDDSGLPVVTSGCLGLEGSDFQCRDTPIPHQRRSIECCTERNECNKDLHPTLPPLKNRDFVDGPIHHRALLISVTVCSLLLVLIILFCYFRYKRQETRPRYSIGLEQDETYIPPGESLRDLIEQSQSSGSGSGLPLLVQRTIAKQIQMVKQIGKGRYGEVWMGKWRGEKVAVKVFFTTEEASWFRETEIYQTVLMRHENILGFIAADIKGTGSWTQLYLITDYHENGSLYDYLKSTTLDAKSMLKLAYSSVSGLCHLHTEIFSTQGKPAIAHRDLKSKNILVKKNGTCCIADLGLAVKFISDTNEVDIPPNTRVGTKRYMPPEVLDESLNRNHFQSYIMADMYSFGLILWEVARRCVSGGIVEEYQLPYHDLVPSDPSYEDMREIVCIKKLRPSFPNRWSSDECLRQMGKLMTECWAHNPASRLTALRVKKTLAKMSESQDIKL
Sequence of GSK-3β (P49841 whole entry): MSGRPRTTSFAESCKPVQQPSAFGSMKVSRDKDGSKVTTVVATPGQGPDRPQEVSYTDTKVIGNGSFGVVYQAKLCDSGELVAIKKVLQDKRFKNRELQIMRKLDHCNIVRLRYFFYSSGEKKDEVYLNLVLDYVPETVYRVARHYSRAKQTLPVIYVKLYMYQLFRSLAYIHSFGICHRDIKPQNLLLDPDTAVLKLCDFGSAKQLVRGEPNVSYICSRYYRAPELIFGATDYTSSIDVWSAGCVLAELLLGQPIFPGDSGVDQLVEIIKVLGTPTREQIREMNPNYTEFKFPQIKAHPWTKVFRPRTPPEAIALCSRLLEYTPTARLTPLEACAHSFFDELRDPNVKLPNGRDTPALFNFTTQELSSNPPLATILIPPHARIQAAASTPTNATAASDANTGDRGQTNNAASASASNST

O=C(NC1CCOCC1)c1ccc(-c2cc(-c3c[nH]nc3-c3ccccn3)ccn2)cc1 [GW788388]
inhibition of TGF-β type II receptor and activin type II receptor [1]: also inhibiting
inhibition of BMP type II receptor (BMP type II receptor): not BMP type II receptor

Cc1cccc(-c2[nH]c(C(C)(C)C)nc2-c2ccc3nccnc3c2)n1 [SB525334]
effect on ALK4 lower than on ALK5 (ALK4): 4 fold
activity to ALK2, 3 and 6 (ALK2, 3 and 6): no activity

Cc1cccc(-c2[nH]c(C(C)(C)C)nc2-c2ccc3c(c2)OCO3)n1 [SB505124]
inhibition of ALK7 (ALK7): also inhibiting ALK7
inhibition of ALK1, 2, 3 or 6 (ALK1, 2, 3 or 6): not ALK1, 2, 3 or 6

Cc1cnc(-c2cnc(NCCNc3ccc(C#N)cn3)nc2-c2ccc(Cl)cc2Cl)[nH]1 [CHIR-99021]
inhibition of GSK-3 stronger than inhibition on CDC2, ERK2 and other kinases (GSK-3β): 500 fold

COc1cc(-c2cc(-c3cccc(O)c3)cnc2N)cc(OC)c1OC [Medium K02288]
IC50 (ALK1): 1.8 nM
IC50 (ALK6): 6.4 nM
inhibiting activity on other ALK5 (3, 4, 5) and ActRIIa (and ActRIIa): slight inhibiting activity

c1ccc2c(-c3cnn4cc(-c5ccc(N6CCNCC6)cc5)cnc34)ccnc2c1 [LDN-193189]
selectivity on BMP higher than on TGF-β (BMP type I receptor ALK2; BMP vs TGF-β): 200 fold
IC50 (BMP type I receptor ALK2; C2C12 cells, read-out: IC50, transcription activity of BMP type I receptor ALK2): 5 nM
IC50 (BMP type I receptor ALK3): 30 nM

CC(C)Oc1ccc(-c2cnc3c(-c4ccnc5ccccc45)cnn3c2)cc1 [DMH1]
IC50 (ALK2): 108 nM
inhibiting activity on AMPK, ALK5, KDR (VEGFR-2) and PDGFR [2]: no inhibiting activity

SD-208
selectivity for TGF-βRI (ALK5) higher than on TGF-βRII (ALK5): more than 100 fold
